Test results: patent publication US6544727B1, “Methods and devices for the removal of psoralens from blood products” (Cerus Corporation, priority 1995, dated 2003)
Like-named read-outs stand apart in the source and are kept apart here.

Tests used:
platelets = test: In vitro platelet function after photochemical treatment and 8-hour RD treatment (Tables O, P); assay type: cell-based, human; settings: RD 8 hours; for pH: T: 150 μM S-59, 3 Joules/cm^2 UVA; for (%) Aggregation / (%) HSR / (%) Microvesicle Formation / (%) p-Selectin-Positive / ATP / Bicarbonate / Glucose / Lactate / Morphology (Out Of 400) / Platelet Shape Change / Platelet count / pCO2 / pO2: T: S-59, UVA
Description: Two ABO-matched single donor PCs containing 2−5×10^11 platelets in approximately 300 mL of 35% plasma and 65% PAS III were pooled and redivided into two identical units in PL 2410 Plastic containers (Baxter). One unit (the control) was immediately placed on a platelet shaker and stored at approximately 22° C. The other unit (the test) was treated with 150 μM S-59 and 3 Joules/cm^2 UVA. After treatment, the platelets suspension was transferred into a second PL 2410 Plastic container containing a RD. Contact between platelets and the RD occurred for a period of approximately 8 hours, then the platelet suspension was transferred to a new PL 2410 Plastic container for storage. The time of blood donation was defined as day 0. Treatment with S-59, UVA (320-400 nm), and the RD was performed on day 1. Six replicate experiments were carried out, each with a different pool of two ABO-matched single-donor platelet concentrates.
For the evaluation of in vitro platelet function, platelet samples were withdrawn from both the control and test units before treatment and after treatment on days 2, 5, and 7. The following parameters were analyzed: pH, pO2, pCO2, bicarbonate concentration, platelet count, morphology, aggregation, platelet shape change, hypotonic shock response, lactate production, glucose consumption, ATP secretion, p-selectin expression, and microvesicle formation. Several of these assays, including pH, morphology score, platelet shape change, and hypotonic shock response, have been reported in the literature to correlate with in- vivo post-transfusion recovery and survival. The Student's paired t-test was used for statistical analysis.
For platelet count measurement, the volume of the control unit is approximately 5% less than the volume of the paired test unit; thus, for statistical analysis the platelet count per μL for the test unit was adjusted by a factor of […]. The pH of the treated platelets was maintained at 6.91±0.05 after seven days of storage following treatment.

[1] = test system: Salmonella tester strain TA100
Procedure, shortened: (§1)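 Pre-incubation Ames method: overnight culture plus 10% Aroclor 1254-induced rat liver S-9 mix or 0.2M phosphate buffer pH 7.4, with test solutions of 0–500 μg/mL, shaken 20 min at 37° C. Plated in histidine/biotin top agar on minimal glucose agar, revertant colonies counted after 44 h at 37° C against spontaneous-revertant background.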

DNA = settings: Isaacs et al., NCI Monograph 66:21 (1984); cited from earlier work
[2] = test system: Salmonella tester strain TA102; test: Ames test, strain TA102
Description: In this example the compounds of the present invention are tested for their dark mutagenicity using an Ames assay. The procedures used for the Salmonella mutagenicity test as described in detail by Maron and Ames were followed exactly. Maron, D. M. and B. N. Ames, Mutation Research 113: 173 ( 1983). A brief description for each procedure is given here. The tester strains TA97a, TA98, TA100, TA102, TA1537 and TA1538 were obtained from Dr. Ames. TA97a, TA98, TA1537 and TA1538 are frameshift tester strains. TA100 and TA102 are base-substitution tester strains. Upon receipt each strain was cultured under a variety of conditions to confirm the genotypes specific to the strains.
The first tests done with the strains were to determine the range of spontaneous reversion for each of the strains. With each mutagenicity experiment the spontaneous reversion of the tester strains to histidine independence was measured and expressed as the number of spontaneous revertants per plate. This served as the background controls.
For all experiments, the pre-incubation procedure was used. In this procedure one vial of each tester strain was thawed and 20 μL of this culture was added to 6 mL of Oxoid Nutrient Broth #2. This solution was allowed to shake for 10 hours at 37° C. In the pre-incubation procedure, 0.1 mL of this overnight culture was added to each of the required number of sterile test tubes. To half of the tubes 0.5 mL of a 10% S-9 solution containing Aroclor 1254 induced rat liver extract (Molecular Toxicology Inc., Annapolis, Md.), and MgCl2, KCl, glucose-6-phosphate, NADP, and sodium phosphate buffer (Sigma, St. Louis, Mo.) were added. To the other half of the tubes 0.5 mL of 0.2M sodium phospate buffer, pH 7.4, was used in place of the S-9 mixture (the—S9samples). Finally 0.1 mL of the test solution containing either 0, 0.1, 0.5, 1, 5, 10, 50, 100, 250, or 500 μg/mL of the test compound was added. The 0.7 mL mixture was vortexed and then pre-incubated while shaking for 20 minutes at 37° C. After shaking, 2 mL of molten top agar supplemented with histidine and biotin were added to the 0.7 mL mixture and immediately poured onto a minimal glucose agar plate (volume of base agar was 20 mL). The top agar was allowed 30 minutes to solidify and then the plates were inverted and incubated for 44 hours at 37° C. After incubation the number of revertant colonies on each plate were counted. […] (“n” represents the number of replicates performed for each data point.)

[3] = test system: Salmonella tester strain TA97a
Procedure, shortened: as §1

Cc1oc2c(C)c3oc(=O)cc(C)c3cc2c1COCCN [Compound 2, 4′-(4-amino-2-oxa)butyl-4,5′,8-trimethylpsoralen]
pH (platelets; Day 2): 6.94 ± 0.05
pH (platelets; Day 5): 6.92 ± 0.06
pH (platelets; Day 7): 6.91 ± 0.05
(%) Aggregation (platelets; Day 2): 88 ± 4%
(%) HSR (platelets; Day 2): 52 ± 5 %
(%) Microvesicle Formation (platelets; Day 2): 0.9 ± 0.2%
(%) p-Selectin-Positive (platelets; Day 2): 49 ± 5 %
ATP (platelets; Day 2): 1.0 ± 0.1 Nmoles Per 10^8 Platelets
Bicarbonate (platelets; Day 2): 6.3 ± 0.3 mM
Glucose (platelets; Day 2): 4.6 ± 0.9 mM
Lactate (platelets; Day 2): 4.7 ± 1.2 mM
Morphology (Out Of 400) (platelets; Day 2): 302 ± 16
Platelet Shape Change (platelets; Day 2): 1.0 ± 0.1
Platelet count (platelets; Day 2): 1545 ± 247 × 10^−3/μL
pCO2 (platelets; Day 2): 29.2 ± 3.8 mm Hg
pO2 (platelets; Day 2): 68.3 ± 19.4 mm Hg
(%) Aggregation (platelets; Day 5): 81 ± 7%
(%) HSR (platelets; Day 5): 45 ± 3%
(%) Microvesicle Formation (platelets; Day 5): 0.8 ± 0.2%
(%) p-Selectin-Positive (platelets; Day 5): 58 ± 5%
ATP (platelets; Day 5): 0.7 ± 0.2 Nmoles Per 10^8 Platelets
Bicarbonate (platelets; Day 5): 4.8 ± 0.5 mM
Glucose (platelets; Day 5): 2.1 ± 1.1 mM
Lactate (platelets; Day 5): 8.5 ± 1.6 mM
Morphology (Out Of 400) (platelets; Day 5): 290 ± 20
Platelet Shape Change (platelets; Day 5): 0.9 ± 0.1
Platelet count (platelets; Day 5): 1525 ± 246 × 10^−3/μL
pCO2 (platelets; Day 5): 23.7 ± 3.5 mm Hg
pO2 (platelets; Day 5): 84.8 ± 22.5 mm Hg
(%) Aggregation (platelets; Day 7): 81 ± 4%
(%) HSR (platelets; Day 7): 48 ± 8%
(%) Microvesicle Formation (platelets; Day 7): 1.7 ± 1.7%
(%) p-Selectin-Positive (platelets; Day 7): 60 ± 7%
ATP (platelets; Day 7): 0.6 ± 0.2 Nmoles Per 10^8 Platelets
Bicarbonate (platelets; Day 7): 4.2 ± 0.7 mM
Glucose (platelets; Day 7): 0.8 ± 0.8 mM
Lactate (platelets; Day 7): 10.8 ± 1.3 mM
Morphology (Out Of 400) (platelets; Day 7): 274 ± 12
Platelet Shape Change (platelets; Day 7): 0.9 ± 0.3
Platelet count (platelets; Day 7): 1500 ± 219 × 10^−3/μL
pCO2 (platelets; Day 7): 20.7 ± 2.4 mm Hg
pO2 (platelets; Day 7): 88.8 ± 20.2 mm Hg
revertant colonies per plate ([1]; TA100 + S9, 5 μg/plate): −18
revertant colonies per plate ([1]; TA100 + S9, 10 μg/plate): 1
revertant colonies per plate ([1]; TA100 + S9, 50 μg/plate): 115
revertant colonies per plate ([1]; TA100 + S9, 100 μg/plate): 96
revertant colonies per plate ([1]; TA100 − S9, 5 μg/plate): 103
revertant colonies per plate ([1]; TA100 − S9, 10 μg/plate): 46
revertant colonies per plate ([1]; TA100 − S9, 50 μg/plate): 182
revertant colonies per plate ([1]; TA100 − S9, 100 μg/plate): 121

Cc1oc2c(C)c3oc(=O)cc(C)c3cc2c1CN [AMT, 4′-Aminomethyl-4,5′,8-trimethylpsoralen, reference compound]
DNA base pairs per AMT adduct (up to 1 adduct per) (DNA): 3.5 DNA base pairs
revertant colonies per plate ([2]; TA102 + S9, 0.1 μg/plate): −20
revertant colonies per plate ([2]; TA102 + S9, 0.5 μg/plate): 5
revertant colonies per plate ([2]; TA102 + S9, 1 μg/plate): −17
revertant colonies per plate ([2]; TA102 + S9, 5 μg/plate): 51
revertant colonies per plate ([2]; TA102 − S9, 0.1 μg/plate): 27
revertant colonies per plate ([2]; TA102 − S9, 0.5 μg/plate): 47
revertant colonies per plate ([2]; TA102 − S9, 1 μg/plate): 88
revertant colonies per plate ([2]; TA102 − S9, 5 μg/plate): 266
revertant colonies per plate ([3]; TA97a + S9, 0.1 μg/plate): −23
revertant colonies per plate ([3]; TA97a + S9, 0.5 μg/plate): 32
revertant colonies per plate ([3]; TA97a + S9, 1 μg/plate): 32
revertant colonies per plate ([3]; TA97a + S9, 5 μg/plate): 149
revertant colonies per plate ([3]; TA97a − S9, 0.1 μg/plate): 14
revertant colonies per plate ([3]; TA97a − S9, 0.5 μg/plate): 9
revertant colonies per plate ([3]; TA97a − S9, 1 μg/plate): 54
revertant colonies per plate ([3]; TA97a − S9, 5 μg/plate): 73
